How the values were obtained:
EGFR (T790M) (h) = EGFR (T790M) (h) (Homo sapiens (Human), UniProt P00533, T790M); experiment: Kinase assay, single dose inhibition (Millipore, 33P-ATP filter binding); type: biochemical; conditions: 0.1 μM test compound, 10 μM ATP; remaining activity relative to DMSO control = 100%
Procedure: (§1) Assay conditions included 10 μM ATP and 100 nM test compounds.
(§2) All reactions are initiated by the addition of the MgATP mix. After incubation for 40 minutes at room temperature, the reaction is stopped by the addition of 3% phosphoric acid solution. 10 μL of the reaction is then spotted onto a P30 filtermat and washed three times for 5 minutes in 75 mM phosphoric acid and once in methanol prior to drying and scintillation counting. This assay is performed by Millipore. The experiment is carried out in duplicate. The value for the control sample (DMSO) was set to 100%, and the values for the compound-treated samples were expressed as activity relative to the control sample.

EGFR (L858R) (h) = EGFR (L858R) (h) (Homo sapiens (Human), UniProt P00533, L858R); experiment: as above; type: biochemical; conditions: 0.1 μM test compound, 10 μM ATP; remaining activity relative to DMSO control = 100%
Sequence of EGFR (L858R) (h) (P00533 25-1210 L858R): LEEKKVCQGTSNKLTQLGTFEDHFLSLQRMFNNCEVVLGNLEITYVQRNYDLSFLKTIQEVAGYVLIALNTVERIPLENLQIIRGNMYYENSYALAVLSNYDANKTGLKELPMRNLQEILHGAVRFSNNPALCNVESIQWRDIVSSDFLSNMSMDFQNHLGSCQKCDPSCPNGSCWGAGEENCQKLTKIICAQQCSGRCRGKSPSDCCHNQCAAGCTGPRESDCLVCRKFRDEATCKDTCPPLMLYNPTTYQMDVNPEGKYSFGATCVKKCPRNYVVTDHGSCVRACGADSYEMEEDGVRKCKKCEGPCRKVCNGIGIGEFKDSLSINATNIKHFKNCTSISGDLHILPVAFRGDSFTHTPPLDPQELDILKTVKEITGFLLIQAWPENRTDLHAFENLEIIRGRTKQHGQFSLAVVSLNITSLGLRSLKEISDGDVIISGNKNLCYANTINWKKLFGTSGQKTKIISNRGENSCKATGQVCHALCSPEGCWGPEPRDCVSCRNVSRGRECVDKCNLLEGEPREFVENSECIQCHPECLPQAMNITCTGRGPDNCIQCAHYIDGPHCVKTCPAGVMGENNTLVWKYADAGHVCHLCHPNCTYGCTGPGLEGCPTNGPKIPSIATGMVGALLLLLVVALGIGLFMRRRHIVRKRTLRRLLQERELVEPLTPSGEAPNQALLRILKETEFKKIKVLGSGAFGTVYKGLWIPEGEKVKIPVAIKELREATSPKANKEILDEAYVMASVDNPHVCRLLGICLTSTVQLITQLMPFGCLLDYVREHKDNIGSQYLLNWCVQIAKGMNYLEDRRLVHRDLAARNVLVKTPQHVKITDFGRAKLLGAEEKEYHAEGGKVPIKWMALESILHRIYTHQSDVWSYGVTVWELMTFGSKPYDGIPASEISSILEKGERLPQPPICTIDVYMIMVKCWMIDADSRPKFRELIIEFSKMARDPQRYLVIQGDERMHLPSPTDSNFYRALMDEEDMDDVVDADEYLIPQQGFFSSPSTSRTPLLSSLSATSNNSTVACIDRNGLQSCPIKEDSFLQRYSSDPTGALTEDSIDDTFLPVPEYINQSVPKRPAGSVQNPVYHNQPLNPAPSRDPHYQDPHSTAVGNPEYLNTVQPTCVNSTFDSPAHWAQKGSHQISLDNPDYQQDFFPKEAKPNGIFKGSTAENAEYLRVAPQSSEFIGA
Procedure: as §1, §2

EGFR (h) = EGFR (h) (Homo sapiens (Human), UniProt P00533); experiment: as above; type: biochemical; conditions: 0.1 μM test compound, 10 μM ATP; remaining activity relative to DMSO control = 100%
Sequence of EGFR (h) (P00533 25-1210): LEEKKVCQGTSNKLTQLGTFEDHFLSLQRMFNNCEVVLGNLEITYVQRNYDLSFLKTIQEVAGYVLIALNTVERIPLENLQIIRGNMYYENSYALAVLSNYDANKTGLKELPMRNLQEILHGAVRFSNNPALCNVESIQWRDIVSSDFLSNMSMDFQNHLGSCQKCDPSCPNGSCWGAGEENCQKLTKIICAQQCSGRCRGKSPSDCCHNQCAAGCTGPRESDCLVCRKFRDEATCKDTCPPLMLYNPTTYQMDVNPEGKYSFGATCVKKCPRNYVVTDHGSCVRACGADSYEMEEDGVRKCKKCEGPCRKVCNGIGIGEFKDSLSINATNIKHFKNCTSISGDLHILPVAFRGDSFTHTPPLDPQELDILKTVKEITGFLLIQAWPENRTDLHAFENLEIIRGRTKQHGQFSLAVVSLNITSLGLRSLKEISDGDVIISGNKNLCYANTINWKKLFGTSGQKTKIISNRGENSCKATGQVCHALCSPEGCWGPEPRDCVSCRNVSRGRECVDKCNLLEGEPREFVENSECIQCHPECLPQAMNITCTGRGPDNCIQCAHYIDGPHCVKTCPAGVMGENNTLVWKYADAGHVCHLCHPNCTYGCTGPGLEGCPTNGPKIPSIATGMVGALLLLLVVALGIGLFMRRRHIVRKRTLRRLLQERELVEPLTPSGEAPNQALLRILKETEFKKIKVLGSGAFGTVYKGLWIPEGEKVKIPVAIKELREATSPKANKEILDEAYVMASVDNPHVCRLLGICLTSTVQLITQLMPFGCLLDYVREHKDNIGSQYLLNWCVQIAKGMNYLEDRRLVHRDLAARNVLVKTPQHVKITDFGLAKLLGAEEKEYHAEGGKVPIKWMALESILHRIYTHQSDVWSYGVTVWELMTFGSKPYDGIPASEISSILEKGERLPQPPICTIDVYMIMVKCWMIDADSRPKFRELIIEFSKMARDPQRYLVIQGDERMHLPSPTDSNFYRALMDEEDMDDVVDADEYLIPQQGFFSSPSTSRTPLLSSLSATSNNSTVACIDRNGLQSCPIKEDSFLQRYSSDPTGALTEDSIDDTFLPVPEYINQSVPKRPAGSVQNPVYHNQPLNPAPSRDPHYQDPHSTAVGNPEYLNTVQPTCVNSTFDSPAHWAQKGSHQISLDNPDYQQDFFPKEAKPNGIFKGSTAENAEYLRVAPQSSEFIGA

EGFR (T790M, L858R) (h) = EGFR (T790M, L858R) (h) (Homo sapiens (Human), UniProt P00533, L858R/T790M); experiment: as above; type: biochemical; conditions: 0.1 μM test compound, 10 μM ATP; remaining activity relative to DMSO control = 100%
Procedure: as §1, §2

[1] = test system: H1975 (EGFR L858R/T790M) NSCLC cells; experiment: Cell proliferation assay (MTS cell viability); type: cell-based; conditions: Homo sapiens, NCI-H1975, 72 h; H1975 cells, 3 days of exposure, MTS
[2] = test system: HCC827 (EGFR Del) NSCLC cells; experiment: Cell proliferation assay (MTS cell viability); type: cell-based; conditions: Homo sapiens, 72 h; HCC827 cells, 3 days of exposure, MTS
ALK (h) = ALK (h) (Homo sapiens (Human), UniProt Q9UM73); experiment: Kinase assay, single dose inhibition (Millipore, 33P-ATP filter binding); type: biochemical; conditions: 0.1 μM test compound, 10 μM ATP, remaining activity relative to DMSO control = 100%
Sequence of ALK (h) (Q9UM73 19-1620): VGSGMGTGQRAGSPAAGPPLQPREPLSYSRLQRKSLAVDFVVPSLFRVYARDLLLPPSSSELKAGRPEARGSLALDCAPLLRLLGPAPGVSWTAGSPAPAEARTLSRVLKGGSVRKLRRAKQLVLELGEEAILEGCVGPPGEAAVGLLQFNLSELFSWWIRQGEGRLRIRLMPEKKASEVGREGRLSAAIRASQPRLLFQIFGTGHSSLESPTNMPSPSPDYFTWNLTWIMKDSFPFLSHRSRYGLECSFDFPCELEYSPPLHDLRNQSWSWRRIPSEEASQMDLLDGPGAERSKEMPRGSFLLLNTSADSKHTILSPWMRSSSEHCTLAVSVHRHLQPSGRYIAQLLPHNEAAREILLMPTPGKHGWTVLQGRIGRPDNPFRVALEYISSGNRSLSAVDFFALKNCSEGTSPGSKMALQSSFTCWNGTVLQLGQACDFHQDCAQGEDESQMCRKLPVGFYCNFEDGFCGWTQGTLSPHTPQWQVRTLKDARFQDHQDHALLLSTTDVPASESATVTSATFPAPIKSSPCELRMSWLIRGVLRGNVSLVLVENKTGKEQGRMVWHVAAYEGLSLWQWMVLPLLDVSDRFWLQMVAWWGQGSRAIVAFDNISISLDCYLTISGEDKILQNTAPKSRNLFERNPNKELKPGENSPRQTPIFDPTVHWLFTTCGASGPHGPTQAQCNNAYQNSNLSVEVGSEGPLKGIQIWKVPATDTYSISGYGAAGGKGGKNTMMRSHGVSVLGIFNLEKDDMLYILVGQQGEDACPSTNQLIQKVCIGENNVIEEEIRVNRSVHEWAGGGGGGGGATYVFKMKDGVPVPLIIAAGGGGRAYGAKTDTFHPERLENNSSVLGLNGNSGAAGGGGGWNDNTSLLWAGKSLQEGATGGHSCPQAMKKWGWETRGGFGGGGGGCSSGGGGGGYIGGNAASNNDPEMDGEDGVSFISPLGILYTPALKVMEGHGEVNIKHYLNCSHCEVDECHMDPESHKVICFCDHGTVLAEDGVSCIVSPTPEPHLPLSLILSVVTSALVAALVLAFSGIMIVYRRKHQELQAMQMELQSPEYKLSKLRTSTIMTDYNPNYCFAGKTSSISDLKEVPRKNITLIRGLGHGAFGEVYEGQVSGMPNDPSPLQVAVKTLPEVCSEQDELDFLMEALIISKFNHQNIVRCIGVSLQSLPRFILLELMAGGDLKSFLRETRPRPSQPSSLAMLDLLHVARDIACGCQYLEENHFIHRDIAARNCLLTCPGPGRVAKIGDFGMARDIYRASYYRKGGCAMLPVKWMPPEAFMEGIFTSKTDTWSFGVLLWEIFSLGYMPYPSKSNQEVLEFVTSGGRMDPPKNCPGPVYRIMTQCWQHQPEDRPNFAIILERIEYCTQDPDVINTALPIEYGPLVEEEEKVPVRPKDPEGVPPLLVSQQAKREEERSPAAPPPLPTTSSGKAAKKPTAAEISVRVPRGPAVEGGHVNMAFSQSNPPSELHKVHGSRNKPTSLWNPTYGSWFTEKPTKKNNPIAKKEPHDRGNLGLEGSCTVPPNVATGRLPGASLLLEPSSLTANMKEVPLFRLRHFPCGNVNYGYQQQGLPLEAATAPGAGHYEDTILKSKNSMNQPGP

| Compound | Activity (control) % EGFR (T790M) (h) (EGFR (T790M) (h)) | Activity (control) % EGFR (L858R) (h) (EGFR (L858R) (h)) | Activity (control) % EGFR (h) (EGFR (h)) | Activity (control) % EGFR (T790M, L858R) (h) (EGFR (T790M, L858R) (h)) | IC50 [1] | IC50 [2] | remaining activity at 0.1 µM (ALK (h); 40 min) | Activity (control) % ALK (h) (ALK (h)) |
| --- | --- | --- | --- | --- | --- | --- | --- | --- |
| C=CC(=O)Nc1cccc(Nc2nc(Nc3ccc(N4CCN(C(C)=O)CC4)cc3OC)ncc2C(F)(F)F)c1 [CO-1686, reference compound] | 21% | 97% | 92% | 7% | – | – | – | – |
| CCOC(=O)C(=O)c1ccccc1Nc1nc(Nc2ccc(N3CCC(N(C)C)CC3)cc2OC)ncc1Cl [Example 1, ethyl 2-(2-(5-chloro-2-(4-(4-(dimethylamino)piperidin-1-yl)-2-methoxyphenylamino)pyrimidin-4-ylamino)phenyl)-2-oxoacetate] | – | – | – | – | > 3000 nM | > 3000 nM | – | – |
| COc1cc(N2CCC(N(C)C)CC2)ccc1Nc1ncc(Cl)c(Nc2ccccc2C(=O)C(=O)O)n1 [Example 2, 2-(2-(5-chloro-2-(4-(4-(dimethylamino)piperidin-1-yl)-2-methoxyphenylamino)pyrimidin-4-ylamino)phenyl)-2-oxoacetic acid] | – | – | – | – | > 3000 nM | > 3000 nM | – | – |
| COc1cc(N2CCN(C)CC2)ccc1Nc1ncc(C(F)(F)F)c(Nc2ccccc2C(=O)C(N)=O)n1 [Example 10, 2-(2-((2-((2-methoxy-4-(4-methylpiperazin-1-yl)phenyl)amino)-5-(trifluoromethyl)pyrimidin-4-yl)amino)phenyl)-2-oxoacetamide] | – | – | – | – | > 3000 nM | > 3000 nM | – | – |
| COc1cc(N2CCC(N(C)C)CC2)ccc1Nc1ncc(C(F)(F)F)c(Nc2ccccc2C(=O)C(=O)O)n1 [Example 15, 2-(2-((2-((4-(4-(dimethylamino)piperidin-1-yl)-2-methoxyphenyl)amino)-5-(trifluoromethyl)pyrimidin-4-yl)amino)phenyl)-2-oxoacetic acid] | – | – | – | – | > 3000 nM | > 3000 nM | – | – |
| COc1cc(N2CCC(N(C)C)CC2)ccc1Nc1ncc(Cl)c(Nc2ccccc2C(=O)C(=O)N2CCOCC2)n1 [Example 18, 1-(2-((5-chloro-2-((4-(4-(dimethylamino)piperidin-1-yl)-2-methoxyphenyl)amino)pyrimidin-4-yl)amino)phenyl)-2-morpholinoethane-1,2-dione] | – | – | – | – | 2860 nM | > 3000 nM | – | – |
| COc1cc(N2CCC(N(C)C)CC2)ccc1Nc1ncc(Cl)c(Nc2ccccc2C(=O)C(=O)NC2CNC2)n1 [Example 24, N-(azetidin-3-yl)-2-(2-((5-chloro-2-((4-(4-(dimethylamino)piperidin-1-yl)-2-methoxyphenyl)amino)pyrimidin-4-yl)amino)phenyl)-2-oxoacetamide] | – | – | – | – | > 3000 nM | > 3000 nM | – | – |
| COc1cc(N2CCC(N(C)C)CC2)ccc1Nc1ncc(Cl)c(Nc2ccccc2C(=O)C(=O)NC2CC2)n1 [Example 25, 2-(2-((5-chloro-2-((4-(4-(dimethylamino)piperidin-1-yl)-2-methoxyphenyl)amino)pyrimidin-4-yl)amino)phenyl)-N-cyclopropyl-2-oxoacetamide] | – | – | – | – | > 3000 nM | > 3000 nM | – | – |
| C=C(CN1CCOCC1)C(=O)Nc1ccc(OC)c(Nc2ncc(Cl)c(Nc3ccccc3C(=O)C(=O)N(C)C)n2)c1 [Example 41, N-(3-(5-chloro-4-(2-(2-(dimethylamino)-2-oxoacetyl)phenylamino)pyrimidin-2-ylamino)-4-methoxyphenyl)-2-(morpholinomethyl)acrylamide] | 2% | 39% | 76% | 3% | – | – | 21% | – |
| COc1cc(N2CCOCC2)ccc1Nc1ncc(Cl)c(Nc2ccccc2C(=O)C(=O)N(C)C)n1 [Example 48, 2-(2-(5-chloro-2-(2-methoxy-4-morpholinophenylamino)pyrimidin-4-ylamino)phenyl)-N,N-dimethyl-2-oxoacetamide] | – | – | – | – | 1950 nM | 1940 nM | – | – |
| COc1cc(N2CCN(C)CC2)ccc1Nc1ncc(Cl)c(Nc2ccccc2C(=O)C(=O)NC2CC2)n1 [Example 49, 2-(2-(5-chloro-2-(2-methoxy-4-(4-methylpiperazin-1-yl)phenylamino)pyrimidin-4-ylamino)phenyl)-N-cyclopropyl-2-oxoacetamide] | – | – | – | – | > 3000 nM | > 3000 nM | – | – |
| CCC(=O)N1CCN(c2ccc(Nc3ncc(Cl)c(Nc4ccccc4C(=O)C(=O)NC)n3)c(OC)c2)CC1 [Example 54, 2-(2-(5-chloro-2-(2-methoxy-4-(4-propionylpiperazin-1-yl)phenylamino)pyrimidin-4-ylamino)phenyl)-N-methyl-2-oxoacetamide] | – | – | – | – | > 3000 nM | > 3000 nM | – | – |
| C=CC(=O)N1CC(NC(=O)C(=O)c2ccccc2Nc2nc(Nc3ccc(N4CCN(C)CC4)cc3OC)ncc2Cl)C1 [Example 55, N-(1-acryloylazetidin-3-yl)-2-(2-(5-chloro-2-(2-methoxy-4-(4-methylpiperazin-1-yl)phenylamino)pyrimidin-4-ylamino)phenyl)-2-oxoacetamide] | – | – | – | – | > 3000 nM | > 3000 nM | – | – |
| C=CC(=O)N1CCC(NC(=O)C(=O)c2ccccc2Nc2nc(Nc3ccc(N4CCN(C)CC4)cc3OC)ncc2Cl)CC1 [Example 56, N-(1-acryloylpiperidin-4-yl)-2-(2-(5-chloro-2-(2-methoxy-4-(4-methylpiperazin-1-yl)phenylamino)pyrimidin-4-ylamino)phenyl)-2-oxoacetamide] | – | – | – | – | > 3000 nM | > 3000 nM | – | – |
| COc1ccc(NC(=O)C=C(C)C)cc1Nc1ncc(Cl)c(Nc2ccccc2C(=O)C(=O)N(C)C)n1 [Example 71, N-(3-(5-chloro-4-(2-(2-(dimethylamino)-2-oxoacetyl)phenylamino)pyrimidin-2-ylamino)-4-methoxyphenyl)-3-methylbut-2-enamide] | – | – | – | – | 990 nM | – | – | – |
| COc1ccc(NC(=O)/C=C/CN2CCCCC2)cc1Nc1ncc(Cl)c(Nc2ccccc2C(=O)C(=O)N(C)C)n1 [Example 72, (E)-N-(3-(5-chloro-4-(2-(2-(dimethylamino)-2-oxoacetyl)phenylamino)pyrimidin-2-ylamino)-4-methoxyphenyl)-4-(piperidin-1-yl)but-2-enamide] | 54% | 28% | 102% | 9% | – | – | – | 14% |
| C=C(CN1CCCCC1)C(=O)Nc1ccc(OC)c(Nc2ncc(Cl)c(Nc3ccccc3C(=O)C(=O)N(C)C)n2)c1 [Example 73, N-(3-(5-chloro-4-(2-(2-(dimethylamino)-2-oxoactyl)phenylamino)pyrimidin-2-ylamino)-4-methoxyphenyl)-2-(piperidin-1-ylmethyl)acrylamide] | 3% | 37% | 67% | 3% | – | – | – | 17% |
| C=C(CN(C)C)C(=O)Nc1ccc(OC)c(Nc2ncc(Cl)c(Nc3ccccc3C(=O)C(=O)N(C)C)n2)c1 [Example 78, N-(3-(5-chloro-4-(2-(2-(dimethylamino)-2-oxoactyl)phenylamino)pyrimidin-2-ylamino)-4-methoxyphenyl)-2-((dimethylamino)methyl)acrylamide] | 2% | 37% | 68% | 3% | – | – | – | 36% |
| COc1ccc(NC(=O)/C=C/CN2CCOCC2)cc1Nc1ncc(Cl)c(Nc2ccccc2C(=O)C(=O)N(C)C)n1 [Example 79, (E)-N-(3-(5-chloro-4-(2-(2-(dimethylamino)-2-oxoacetyl)phenylamino)pyrimidin-2-ylamino)-4-methoxyphenyl)-4-morpholinobut-2-enamide] | 16% | 25% | 92% | 2% | – | – | – | 7% |
| COc1ccc(NC(=O)/C=C/CN(C)C)cc1Nc1ncc(Cl)c(Nc2ccccc2C(=O)C(=O)N(C)C)n1 [Example 80, (E)-N-(3-(5-chloro-4-(2-(2-(dimethylamino)-2-oxoacetyl)phenylamino)pyrimidin-2-ylamino)-4-methoxyphenyl)-4-(dimethylamino)but-2-enamide] | 42% | 43% | 101% | 7% | – | – | – | 10% |
| C=CC(=O)N1CCOc2ccc(Nc3ncc(Cl)c(Nc4ccccc4C(=O)C(=O)N(C)C)n3)cc21 [Example 87, 2-(2-(2-(4-acryloyl-3,4-dihydro-2H-benzo[b][1,4]oxazin-6-ylamino)-5-chloropyrimidin-4-ylamino)phenyl)-N,N-dimethyl-2-oxoacetamide] | – | – | – | – | – | – | – | 5% |
| C=CC(=O)Nc1ccc(OC)c(Nc2ncc(Cl)c(Nc3ccccc3C(=O)C(=O)N3CCN(C)CC3)n2)c1 [Example 89, N-(3-(5-chloro-4-(2-(2-(4-methylpiperazin-1-yl)-2-oxoacetyl)phenylamino)pyrimidin-2-ylamino)-4-methoxyphenyl)acrylamide] | 5% | 10% | 67% | 1% | – | – | – | 8% |
| N-(5-(5-chloro-4-(2-(2-(dimethylamino)-2-oxoactyl)phenylamino)pyrimidin-2-ylamino)-2-(2-(dimethylamino)ethoxy)phenyl)acrylamide [Example 115] | – | – | – | – | – | – | – | 6% |

— patent US10059688B2, “Protein tyrosine kinase modulators and methods of use” (BETTA PHARMACEUTICALS CO., LTD., priority 2013, dated 2018)
